Columns and labels:
Assay type in all cases: binding
PB1(5) = target: T1, PB1(5) (Homo sapiens, UniProt Q86U86); experiment: Protein stability (thermal) shift assay, PB1(5); details: compound 10 μM, protein 2 μM; average of triplicate
T1 construct: made in house

CREBBP = target: T2, CREBBP (Homo sapiens, UniProt Q92793); experiment: Protein stability (thermal) shift assay, CREBBP; details: compound 10 μM, protein 2 μM; average of triplicate; read-out: ΔTm Shift, CREBBP
T2 construct: small thermal shits (1.0–1.3 °C) for the bromodomain of CREBBP; made in house

BRD2(1) = target: T3, BRD2(1) (Homo sapiens, UniProt P25440); experiment: Protein stability (thermal) shift assay, BRD2(1); details: compound 10 μM, protein 2 μM; average of triplicate
T3 construct: Fragments were tested in a thermal shift assay against bromodomains of the BET subfamily; made in house

BRD3(1) = target: T4, BRD3(1) (Homo sapiens, UniProt Q15059); experiment: Protein stability (thermal) shift assay, BRD3(1); details: compound 10 μM, protein 2 μM; average of triplicate
T4 construct: Fragments were tested in a thermal shift assay against bromodomains of the BET subfamily; made in house

BRD3(2) = target: T5, BRD3(2) (Homo sapiens, UniProt Q15059); experiment: Protein stability (thermal) shift assay, BRD3(2); details: compound 10 μM, protein 2 μM; average of triplicate
T5 construct: made in house
T5 sequence (Q15059 306-415 limits assumed): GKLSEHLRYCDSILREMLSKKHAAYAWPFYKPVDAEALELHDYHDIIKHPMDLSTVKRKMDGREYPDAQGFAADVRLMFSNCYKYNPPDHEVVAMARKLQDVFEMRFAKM

T2 sequence (Q92793 1085-1192 limits assumed): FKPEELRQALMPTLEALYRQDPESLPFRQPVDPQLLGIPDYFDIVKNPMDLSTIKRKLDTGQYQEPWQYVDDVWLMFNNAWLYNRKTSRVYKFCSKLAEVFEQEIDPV
T4 sequence (Q15059 34-140 limits assumed): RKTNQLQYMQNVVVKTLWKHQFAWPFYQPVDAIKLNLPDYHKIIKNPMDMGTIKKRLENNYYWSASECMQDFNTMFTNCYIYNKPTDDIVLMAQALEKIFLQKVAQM
T1 sequence (Q86U86 653-763 limits assumed): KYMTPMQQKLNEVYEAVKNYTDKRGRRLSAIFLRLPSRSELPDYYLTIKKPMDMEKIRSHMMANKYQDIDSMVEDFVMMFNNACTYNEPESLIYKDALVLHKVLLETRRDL
T3 sequence (P25440 74-180 limits assumed): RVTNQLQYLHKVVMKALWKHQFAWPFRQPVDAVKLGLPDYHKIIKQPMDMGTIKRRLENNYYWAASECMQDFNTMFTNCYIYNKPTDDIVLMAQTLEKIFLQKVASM

| ΔTm at 10 µM (PB1(5)) | ΔTm at 10 µM (CREBBP) | ΔTm at 10 µM (BRD2(1)) | ΔTm at 10 µM (BRD3(1)) | ΔTm at 10 µM (BRD3(2)) | SMILES |
| --- | --- | --- | --- | --- | --- |
| 1.6 °C | 2.9 °C | 2.5 °C | 2.1 °C | 0.7 °C | COc1ccc(Br)cc1-c1nc(N)nc2[nH]cnc12 [Compound 7d, 2-Amino-6-(5-bromo-2-methoxyphenyl)-9H-purine] |
| 0.8 °C | 3.6 °C | 2.8 °C | 3.7 °C | 5.4 °C | Nc1nc(-c2cc(Br)cc3c2OCC3)c2nc[nH]c2n1 [Compound 11, 2-Amino-6-(5-bromo-2,3-dihydrobenzo[b]furan-7-yl)-9H-purine] |

From article PMC4403932 (Journal of Medicinal Chemistry, 2015)
